# Test results reported in article PMC8400968, “Design, Synthesis, Biological Evaluation, and Computational Studies of Novel Tri-Aryl Imidazole-Benzene Sulfonamide Hybrids as Promising Selective Carbonic Anhydrase IX and XII Inhibitors” (Molecules, 2021).
# Values joined by “and” are separate entries in the source; they are usually repeats but may differ in a detail not shown here. Equal values may be shown once. Read-outs that look alike come from different tables or passages of the source.
# How the values were obtained:
# hCA XII = target: T1, hCA XII (Homo sapiens, UniProt O43570); experiment: stopped-flow CO2 hydrase assay, hCA XII; type: biochemical
# T1 construct: made in house
# Description: Newly synthesized hybrids 5a–n were tested for their inhibitory activity against four physiologically and pharmacologically CA isoforms, namely cytosolic hCA I and II, and tumor-associated isoforms hCA IX and XII, using a CO2 hydrase stop-flow assay. Acetazolamide (AAZ), clinically used sulphonamide, was used as the standard drug. […]. The ortho substitution in the aryl moiety appears to correlate with higher inhibitory effects against both hCA IX and XII. […] […]. The ability of imidazoles 5a–n toward inhibition of hCA I, II (cytosolic) as well as hCA IX and XII (transmembrane, tumor-associated isoforms) using stopped-flow CO2 hydrase assay was evaluated. See Appendix A.
# The carbonic anhydrase catalyzed CO2 hydration actions for all new compounds herein reported have were assayed utilizing an instrument of Applied Photophysics stopped-flow. The enzymes are recombinant proteins prepared in our lab. […]. The uncatalyzed rates were determined in the same manner and subtracted from the total observed rates. Stock solutions of inhibitor (0.1 mM) were prepared in distilled-deionized water and dilutions up to 0.01 nM were done thereafter with the assay buffer. Inhibitor and enzyme solutions were preincubated together for 15 min at room temperature prior to assay, in order to allow for the formation of the E-I complex. The inhibition constants were obtained by non-linear least-squares methods using PRISM 3 and the Cheng-Prusoff equation, and represent the mean from at least three different determinations.
# hCA II = target: T2, hCA II (Homo sapiens, UniProt P00918); experiment: stopped-flow CO2 hydrase assay, hCA II; type: biochemical
# T2 construct: made in house
# Description: (§1) Newly synthesized hybrids 5a–n were tested for their inhibitory activity against four physiologically and pharmacologically CA isoforms, namely cytosolic hCA I and II, and tumor-associated isoforms hCA IX and XII, using a CO2 hydrase stop-flow assay. Acetazolamide (AAZ), clinically used sulphonamide, was used as the standard drug. […] The ability of imidazoles 5a–n toward inhibition of hCA I, II (cytosolic) as well as hCA IX and XII (transmembrane, tumor-associated isoforms) using stopped-flow CO2 hydrase assay was evaluated. See Appendix A.
# (§2) The enzymes are recombinant proteins prepared in our lab. […] The uncatalyzed rates were determined in the same manner and subtracted from the total observed rates. Stock solutions of inhibitor (0.1 mM) were prepared in distilled-deionized water and dilutions up to 0.01 nM were done thereafter with the assay buffer. Inhibitor and enzyme solutions were preincubated together for 15 min at room temperature prior to assay, in order to allow for the formation of the E-I complex. The inhibition constants were obtained by non-linear least-squares methods using PRISM 3 and the Cheng-Prusoff equation, and represent the mean from at least three different determinations.
# hCA I = target: T3, hCA I (Homo sapiens, UniProt P00915); experiment: stopped-flow CO2 hydrase assay, hCA I; type: biochemical
# T3 construct: made in house
# Description: as §1, §2
# hCA IX = target: T4, hCA IX (Homo sapiens, UniProt Q16790); experiment: stopped-flow CO2 hydrase assay, hCA IX; type: biochemical; settings: for fold lower inhibitory activity on hCA IX than the ortho-derivative: 5f vs 5e, 5h vs 5g; for Selectivity Ratio hCA XII/ hCA IX: selectivity for hCA IX over hCA XII; for Ki: stopped-flow CO2 hydrase assay; for IC50: quoted in docking discussion, read-out: IC50 CA-IX (in vitro inhibitory activity quoted in docking study)
# T4 construct: made in house
# Description: as §1, §2
# [1] = system: epithelial cancer cell line (A-549); experiment: Antiproliferative activity, MTT assay, A-549; type: cell-based; settings: Homo sapiens, A549; A-549, MTT; read-out: Antiproliferative Activity IC50 ± SEM A-549
# Description: (§3) The antiproliferative activity of 5b, 5d, 5e, 5g, 5j and 5n against four human cancer cell lines including pancreatic cancer cell line (Panc-1), breast cancer cell line (MCF-7), colon cancer cell line (HT-29) and epithelial cancer cell line (A-549) using MTT assay and doxorubicin was applied as the reference compound [22, 23]. Graph Pad Prism software (Graph Pad Software, San Diego, CA, USA) was used to calculate the median inhibition concentration (IC50) and results are recorded in Table 2.
# (§4) The antiproliferative activity of 5b, 5d, 5e, 5g, 5j and 5n against four human cancer cell lines including pancreatic cancer cell line (Panc-1), breast cancer cell line (MCF-7), colon cancer cell line (HT-29) and epithelial cancer cell line (A-549) using MTT assay and doxorubicin was applied as the reference compound [22, 23]. See Appendix A.
# (§5) To explore the antiproliferative potential of compounds MTT assay was performed according to previously reported procedure using different cell lines To explore the antiproliferative potential of compounds propidium iodide fluorescence assay was performed using different cell lines. To calculate the total nuclear DNA, a fluorescent dye (propidium iodide, PI) is used which can attach to the DNA, thus offering a quick and precise technique. PI cannot pass through the cell membrane and its signal intensity can be considered as directly proportional to quantity of cellular DNA. Cells whose cell membranes are damaged or have changed permeability are counted as dead ones. The assay was performed by seeding the cells of different cell lines at a density of 3000–7500 cells/well (in 200 µL medium) in culture plates followed by incubation for 24 h at 37 °C in humidified 5% CO2/95% air atmospheric conditions. The medium was removed; the compounds were added to the plates at 10 µM concentrations (in 0.1% DMSO) in triplicates, followed by incubation for 48 h. DMSO (0.1%) was used as control. After incubation, medium was removed followed by the addition of PI (25 µL, 50µg/mL in water/medium) to each well of the plates. At −80 °C, the plates were allowed to freeze for 24 h, followed by thawing at 25 °C. A fluorometer (Polar-Star BMG Tech, Offenburg, Germany) was used to record the readings at excitation and emission wavelengths of 530 and 620 nm for each well. The percentage cytotoxicity of compounds was calculated using the following formula: %Cytotoxicity=(Ac−Atc)/Ac×100 where Atc = Absorbance of treated cells and Ac = Absorbance of control. Erlotinib was used as positive control in the assay.
# [2] = system: colon cancer cell line (HT-29); experiment: Antiproliferative activity, MTT assay, HT-29; type: cell-based; settings: Homo sapiens; HT-29, MTT; read-out: Antiproliferative Activity IC50 ± SEM HT-29
# Description: as §3, §4, §5
# [3] = system: breast cancer cell line (MCF-7); experiment: Antiproliferative activity, MTT assay, MCF-7; type: cell-based; settings: Homo sapiens, MCF7; MCF-7, MTT; read-out: Antiproliferative Activity IC50 ± SEM MCF-7
# Description: as §3, §4, §5
# [4] = system: four human cancer cell lines (Panc-1, MCF-7, HT-29, A-549); experiment: Antiproliferative activity, MTT assay, average of the four cell lines; type: cell-based; settings: for IC50: average of A-549, MCF-7, Panc-1, HT-29; for GI50: four cancer cell lines, read-out: GI50
# Description: as §3, §4, §5
# [5] = system: pancreatic cancer cell line (Panc-1); experiment: Antiproliferative activity, MTT assay, Panc-1; type: cell-based; settings: Homo sapiens; Panc-1, MTT; read-out: Antiproliferative Activity IC50 ± SEM Panc-1
# Description: as §3, §4, §5
# [6] = Cell viability assay (MTT); type: cell-based; settings: human, MCF-10A mammary gland epithelial cells, MCF-10A cells, incubated 4 days
# Description: Cell viability assay was carried out using human mammary gland epithelial cell line (MCF-10A). MCF-10A cells were incubated with compounds 5b, 5d, 5e, 5g, 5j and 5n for 4 days and MTT assay was used to determine the viability of cells. See Appendix A.
# MTT assay was carried out to study the effect of compounds on mammary epithelial cells (MCF-10A). The medium in which cells were propagated contained Dulbecco’s modified Eagle’s medium (DMEM)/Ham’s F-12 medium (1:1) supplemented with epidermal growth factor (20 ng/mL), hydrocortisone (500 ng/mL), insulin (10 μg/mL), 2 mM glutamine and 10% fetal calf serum. After every 2–3 days, the cells were passaged using trypsin ethylenediamine tetra acetic acid (EDTA). The cells were seeded at a density of 10^4 cells mL^−1 in flat-bottomed culture plates containing 96 wells each. After 24 h, medium was removed from the plates and the compounds in (in 0.1% DMSO) were added (in 200 μL medium to yield a final concentration of 0.1% v/v) to the wells of plates. A single compound was designated with four wells followed by incubation of plates for 96 h at 37 °C. After incubation, medium was removed completely from the plates followed by addition of MTT (0.4 mg/mL in medium) to each well and subsequent incubation of plates for 3 h. MTT (along with the medium) was removed and DMSO (150 μL) was added to each well of the culture plates, followed by vortexing and subsequent measurement of absorbance (at 540 nm) using microplate reader. The data are shown as percentage inhibition of proliferation in comparison with controls containing 0.1% DMSO.
# [7] = stopped-flow CO2 hydrase assay, read-out: Ki hCA I
# T1 sequence (O43570 25-354): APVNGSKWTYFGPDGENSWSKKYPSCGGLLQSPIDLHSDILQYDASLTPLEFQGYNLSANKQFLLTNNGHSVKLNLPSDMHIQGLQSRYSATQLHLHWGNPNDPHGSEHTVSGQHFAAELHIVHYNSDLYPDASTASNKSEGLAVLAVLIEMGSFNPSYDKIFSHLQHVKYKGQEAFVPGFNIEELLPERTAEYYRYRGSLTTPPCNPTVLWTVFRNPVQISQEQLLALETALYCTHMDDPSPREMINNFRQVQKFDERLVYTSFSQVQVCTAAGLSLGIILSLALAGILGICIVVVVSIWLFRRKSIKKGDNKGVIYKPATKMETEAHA
# T3 sequence (P00915 whole entry): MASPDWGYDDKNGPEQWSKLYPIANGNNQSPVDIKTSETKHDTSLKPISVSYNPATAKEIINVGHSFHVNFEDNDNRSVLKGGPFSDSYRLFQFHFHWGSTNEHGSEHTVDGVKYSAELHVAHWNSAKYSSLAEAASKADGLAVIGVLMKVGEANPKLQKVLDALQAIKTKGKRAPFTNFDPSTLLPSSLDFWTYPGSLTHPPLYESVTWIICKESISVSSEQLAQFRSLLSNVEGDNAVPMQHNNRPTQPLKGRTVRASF
Ki (hCA XII) [µM],Ki (hCA II) [µM],Ki (hCA I) [µM],fold lower inhibitory activity on hCA IX than the ortho-derivative (hCA IX) [fold],Selectivity Ratio hCA XII/ hCA IX (hCA IX),Ki (hCA IX),melting point [°C],IC50 [1] [µM],IC50 [2] [µM],IC50 [3] [µM],IC50 [4] [µM],GI50 [4] [µM],IC50 [5] [µM],Ki (hCA I; [7]) [µM],IC50 (hCA IX) [µM],Compound,viability at 96 h [6] [%]
7.1,> 100,> 100,10,0.90,8.4 µM,–,–,–,–,–,–,–,–,–,"NS(=O)(=O)c1ccc(-n2c(-c3ccc(O)cc3)nc(-c3ccccc3)c2-c2ccccc2)cc1 [Compound 5f, 4-(2-(4-Hydroxyphenyl)-4,5-diphenyl-1H-imidazol-1-yl)benzene sulfonamide]",–
3.7,> 100,> 100,–,0.45,8.2 µM,230 to 232,–,–,–,–,–,–,–,–,"NS(=O)(=O)c1ccc(-n2c(-c3ccc(Cl)cc3)nc(-c3ccccc3)c2-c2ccccc2)cc1 [Compound 5c, 4-(2-(4-Chlorophenyl)-4,5-diphenyl-1H-imidazol-1-yl)benzene sulfonamide]",–
4.6,> 100,–,–,11.50,0.36 µM and 0.4 µM,–,2.8 ± 0.5,3.1 ± 0.1,2.7 ± 0.4,2.8,2.8,2.5 ± 0.2,> 100,0.36,"NS(=O)(=O)c1ccc(-n2c(-c3ccccc3Br)nc(-c3ccccc3)c2-c2ccccc2)cc1 [Compound 5b, 4-(2-(2-Bromophenyl)-4,5-diphenyl-1H-imidazol-1-yl)benzene sulfonamide]",91
6.6,> 100,> 100,–,0.70,9.2 µM,260 to 262,–,–,–,–,–,–,–,9.2,"COc1ccc(-c2nc(-c3ccccc3)c(-c3ccccc3)n2-c2ccc(S(N)(=O)=O)cc2)cc1OC [Compound 5i, 4-(2-(3,4-Dimethoxyphenyl)-4,5-diphenyl-1H-imidazol-1-yl)benzene sulfonamide]",–
6.8,> 100,> 100,–,0.80,8.5 µM,200 to 202,–,–,–,–,–,–,–,–,"NS(=O)(=O)c1ccc(-n2c(-c3ccc(C(=O)O)cc3)nc(-c3ccccc3)c2-c2ccccc2)cc1 [Compound 5l, 4-(4,5-Diphenyl-1-(4-sulfamoylphenyl)-1H-imidazol-2-yl)benzoic acid]",–
5.5,> 100,> 100,–,1.90,2.9 µM,210 to 212,–,–,–,–,–,–,–,–,"NS(=O)(=O)c1ccc(-n2c(-c3ccccc3)nc(-c3ccccc3)c2-c2ccccc2)cc1 [Compound 5a, 4-(2,4,5-Triphenyl-1H-imidazol-1-yl)benzene sulfonamide]",–
6.2,> 100,–,–,0.70,8.8 µM,216 to 218,–,–,–,–,–,–,> 100,–,"CCOC(=O)c1ccc(-c2nc(-c3ccccc3)c(-c3ccccc3)n2-c2ccc(S(N)(=O)=O)cc2)cc1 [Compound 5m, Ethyl 4-(4,5-diphenyl-1-(4-sulfamoylphenyl)-1H-imidazol-2-yl)benzoate]",–
6.8,> 100,> 100,–,0.70,9.3 µM,224 to 226,–,–,–,–,–,–,–,9.3,"CN(C)c1ccc(-c2nc(-c3ccccc3)c(-c3ccccc3)n2-c2ccc(S(N)(=O)=O)cc2)cc1 [Compound 5k, 4-(2-(4-(Dimethylamino)phenyl)-4,5-diphenyl-1H-imidazol-1-yl)benzene sulfonamide]",–
–,–,–,–,–,–,–,1.2 ± 0.8,1 ± 0.8,0.9 ± 0.6,1.1,1.1,1.4 ± 0.6,–,–,"COc1cccc2c1C(=O)c1c(O)c3c(c(O)c1C2=O)C[C@@](O)(C(=O)CO)C[C@@H]3O[C@H]1C[C@H](N)[C@H](O)[C@H](C)O1 [Doxorubicin, reference compound]",–
3.9,> 100,> 100,22,0.50,7.4 µM,235 to 237,–,–,–,–,–,–,–,–,"COc1ccc(-c2nc(-c3ccccc3)c(-c3ccccc3)n2-c2ccc(S(N)(=O)=O)cc2)cc1 [Compound 5h, 4-(2-(4-Methoxyphenyl)-4,5-diphenyl-1H-imidazol-1-yl)benzene sulfonamide]",–
